Some test systems named below: 786-0 renal; A498 renal; A549 NSCLC; COLO 205 colon; HL-60(TB) leukemia; HOP-62 NSCLC; HS 578T breast; M14 melanoma; NCI-H23 lung; NCI-H460 lung; NCI/ADR-RES ovarian; OVCAR-8 ovarian; SK-MEL-28 melanoma; SNB-75 CNS; U251 CNS.
Holding throughout (assay): growth of human tumour cells (NCI), 48 h

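Protocol summary: plate cells (96-well), add compound at 5 concentrations, incubate 48 h, interpolate endpoints linearly. At the TGI there is no net growth.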

As for `C[C@@H]1O[C@@H]2OCC[C@@H]2C2=C1C(=O)c1ccccc1C2=O`, the TGI in the test on 786-0 renal is 29.1 µM; in the test with A498 renal it was 32.4 µM; in the test with A549 NSCLC it was 41.9 µM; in the test with COLO 205 colon it was 51.3 µM; in the test with HL-60(TB) leukemia, 19.1 µM; in the test on HOP-62 NSCLC, 31.5 µM. Besides, the TGI with HS 578T breast is greater than 100 µM; in the test on M14 melanoma it was 14.2 µM; in the test with NCI-H23 lung, 23.4 µM; in the test with NCI-H460 lung it was 31.9 µM; with NCI/ADR-RES ovarian it was 14 µM; in the test with OVCAR-8 ovarian, greater than 100 µM. Also, the TGI was found to be 51.5 µM in the test on SK-MEL-28 melanoma, 41.9 µM in the test on SNB-75 CNS and 29.5 µM with U251 CNS.

On to `CC(C)Nc1n[nH]c(=O)n1C(C)C`, for which the TGI in the test with 786-0 renal, in the test on A498 renal, with A549 NSCLC, in the test with COLO 205 colon, in the test on HL-60(TB) leukemia and with HOP-62 NSCLC was greater than 100 µM in each case. Besides, the TGI with HS 578T breast, with M14 melanoma, with NCI-H23 lung, with NCI-H460 lung, in the test on NCI/ADR-RES ovarian and with OVCAR-8 ovarian was greater than 100 µM each time. Besides, the TGI in the test with SK-MEL-28 melanoma, in the test on SNB-75 CNS and in the test with U251 CNS was greater than 100 µM in each case.

For the compound `COc1ccc(Oc2nc3cc(C(F)(F)F)ccc3nc2C(C)C)cc1`, the TGI with 786-0 renal is greater than 100 µM; in the test on A498 renal, 58.3 µM; with A549 NSCLC, greater than 100 µM; with COLO 205 colon it was 30.2 µM; in the test with HL-60(TB) leukemia it was 37.7 µM; in the test on HOP-62 NSCLC it was greater than 100 µM. In addition, the TGI with HS 578T breast is greater than 100 µM; in the test on M14 melanoma, greater than 100 µM; in the test with NCI-H23 lung, 52.6 µM; with NCI-H460 lung, 68.8 µM; in the test with NCI/ADR-RES ovarian, 44.1 µM; with OVCAR-8 ovarian, 94.5 µM. Moreover, the TGI was greater than 100 µM with SK-MEL-28 melanoma, 95.7 µM in the test with SNB-75 CNS and 50.8 µM in the test with U251 CNS.

Consider `COc1ccc(OC)c2c1C(=O)C(Cl)=C(Cl)C2=O`, for which the TGI was 10.5 µM with 786-0 renal; 41.6 µM in the test with A498 renal; 56.4 µM with A549 NSCLC; 3.21 µM in the test on COLO 205 colon; greater than 100 µM in the test on HL-60(TB) leukemia; 6.06 µM in the test with HS 578T breast. The TGI in the test on M14 melanoma was 6.46 µM; in the test on NCI-H23 lung it was 19.2 µM; in the test on NCI-H460 lung, 44.3 µM; in the test on NCI/ADR-RES ovarian it was 5.74 µM; in the test on OVCAR-8 ovarian it was 18.3 µM; in the test on SK-MEL-28 melanoma, 12.8 µM. In addition, the values for the TGI in the test with SNB-75 CNS and in the test on U251 CNS were 29.1 µM and 38.9 µM, respectively.

Take `Cc1c2ccccc2nc2[nH]c3ccncc3c12`: the TGI in the test with 786-0 renal was 71.5 µM; in the test on A498 renal, greater than 100 µM; with A549 NSCLC, greater than 100 µM; in the test on COLO 205 colon, greater than 100 µM; with HL-60(TB) leukemia, greater than 100 µM; in the test with HOP-62 NSCLC it was 62 µM. The TGI in the test with HS 578T breast is greater than 100 µM; in the test on M14 melanoma, 85.7 µM; in the test with NCI-H23 lung, 74.3 µM; in the test on NCI-H460 lung it was 39.8 µM; with NCI/ADR-RES ovarian, 72.4 µM; with OVCAR-8 ovarian, greater than 100 µM. For the same compound, the TGI in the test with SK-MEL-28 melanoma, in the test with SNB-75 CNS and in the test with U251 CNS was greater than 100 µM throughout.

Consider `Cc1ccc(-c2n[nH]c(CC#N)n2)cc1`, for which the TGI in the test with 786-0 renal, in the test with A498 renal, with A549 NSCLC, in the test on COLO 205 colon, in the test with HL-60(TB) leukemia and in the test on HOP-62 NSCLC was greater than 100 µM throughout. The TGI in the test with HS 578T breast, in the test with M14 melanoma, with NCI-H23 lung, in the test with NCI-H460 lung, in the test on NCI/ADR-RES ovarian and with OVCAR-8 ovarian was greater than 100 µM throughout. In addition, the TGI in the test on SK-MEL-28 melanoma, in the test with SNB-75 CNS and in the test with U251 CNS was greater than 100 µM in each case.

For the compound `COc1ccc(/C=C/c2cc(=O)cc(/C=C/c3ccc(OC)c(O)c3)o2)cc1O`, the TGI with 786-0 renal was greater than 34 µM; in the test with A498 renal it was 9.43 µM; in the test with A549 NSCLC it was 12.6 µM; in the test on COLO 205 colon, greater than 61.1 µM; in the test on HL-60(TB) leukemia, 5.02 µM; in the test on HOP-62 NSCLC, 12.2 µM. Further, the TGI in the test with HS 578T breast is greater than 100 µM; in the test on M14 melanoma, 4.45 µM; in the test with NCI-H23 lung it was 5.8 µM; with NCI-H460 lung, 5.73 µM; in the test with NCI/ADR-RES ovarian, greater than 24.3 µM; in the test on OVCAR-8 ovarian it was 10.1 µM. The TGI with SK-MEL-28 melanoma was greater than 100 µM; with SNB-75 CNS, 22.6 µM; in the test with U251 CNS, 4.21 µM.

On to `C/C(=N/NC(=S)Nc1cccc(Cl)c1)c1cccc(/C(C)=N\NC(=S)Nc2cccc(Cl)c2)n1`, for which the TGI in the test on 786-0 renal was greater than 41.7 µM; in the test with A498 renal it was greater than 100 µM; in the test on A549 NSCLC it was greater than 24.5 µM; with COLO 205 colon, greater than 100 µM; in the test with HL-60(TB) leukemia, greater than 100 µM; in the test with HOP-62 NSCLC, 23.8 µM. The TGI was greater than 74.6 µM in the test on HS 578T breast; 7.76 µM in the test on M14 melanoma; greater than 38.5 µM with NCI-H23 lung; greater than 44.7 µM in the test with NCI-H460 lung; greater than 100 µM in the test with NCI/ADR-RES ovarian; greater than 37.5 µM with OVCAR-8 ovarian. For the same compound, the TGI with SK-MEL-28 melanoma was greater than 100 µM; in the test with SNB-75 CNS, 40.8 µM; in the test with U251 CNS it was greater than 59.3 µM.

Turning to `Cc1ccc(-c2n[nH]c(=O)n2N)cc1`, the TGI with 786-0 renal, in the test with A498 renal, in the test on A549 NSCLC, in the test on COLO 205 colon, in the test with HL-60(TB) leukemia and with HOP-62 NSCLC was greater than 100 µM in each case. The TGI in the test on HS 578T breast, with M14 melanoma, with NCI-H23 lung, in the test on NCI-H460 lung, with NCI/ADR-RES ovarian and with OVCAR-8 ovarian was greater than 100 µM throughout. Further, the TGI with SK-MEL-28 melanoma, with SNB-75 CNS and in the test on U251 CNS was greater than 100 µM each time.

The values are drawn from PubChem BioAssay (NCI).
